# Patent publication US11801266B2, “Methods of using anti-MIR126 compounds” (CITY OF HOPE, priority 2019, dated 2023)
# Key:
# [1] = test system: normal HSCs; test: Cell cycling (EdU and DAPI) in human normal HSCs; assay type: cell-based; conditions: 500 nM, compared to CpG-scrRNA-treated controls
# Procedure: (§1) After transduction performed as above, GFP+ cells selected at 48 h were exposed to NIL (2 μM and 5 μM, Novartis) for another 72 h, and analyzed using assays for cell growth, apoptosis, cell cycle, CFC and CFC replating. Human HSCs and mouse LT-HSCs were also treated with CpG-miR-126 inhibitor or CpG-scrRNA (500 nM), with or without NIL (5 μM), for 72 h and analyzed for cell growth, apoptosis, cell cycle and CFC. Human CML HSCs co-cultured with control or miR-126 KD HUVECs and mouse CML LT-HSCs co-cultured with control or miR-126 KD ECs for 96 h, with or without NIL (5 μM), were also analyzed for cell growth, apoptosis, cell cycle and CFC. Cell growth was measured by Lumino Glo (Promega). Apoptosis was measured by labeling cells with Annexin V-PE or FITC or APC and 4, 6-diamidino-2-phenylindole (DAPI) (all from BD-PharMingen, San Diego, Calif.) and analyzed by flow cytometry. Cell cycle was analyzed by Ki-67-Alexa Fluor 647 (B56, BD) and DAPI labeling based on the manufacturer's protocol. Cells were also exposed to EdU (C10640, Invitrogen) for 2 h and EdU staining was analyzed according to the manufacturer's protocol. Cell proliferation was also measured by CFSE staining (Molecular probes) based on the manufacturer's protocol. […]
# [2] = test system: CML HSCs; test: Cell cycling (EdU and DAPI) in human CML HSCs; assay type: cell-based; conditions: 500 nM, compared to CpG-scrRNA-treated controls
# Procedure: as §1
# [3] = test system: normal BM LT-HSCs; test: Cell cycling in mouse normal BM LT-HSCs; assay type: cell-based; conditions: 500 nM, 72 h
# Procedure: as §1
# [4] = test system: CML BM LT-HSCs; test: Cell cycling in mouse CML BM LT-HSCs; assay type: cell-based; conditions: 500 nM, 72 h
# Procedure: as §1
# [5] = test system: miR-126; test: In vivo miR-126 down-regulation in sorted LT-HSCs and ECs; design: species or system mouse; conditions: normal and CML mice, 5 mg/kg/day iv daily for 3 days; QPCR
# Procedure: Next, we evaluated CpG-miR-126 inhibitor-Cy3 uptake in mouse LT-HSCs and ECs in vitro and in vivo. […]
# To measure the miRNA and mRNA expression, total RNA was extracted using the miRNeasy Mini Kit (Qiagen, Valencia, Calif.). For miRNA expression, reverse transcription using MultiScribe™ Reverse Transcriptase and Q-PCR analysis using Taqman assays (Applied Biosystems) were performed according to the manufacturer's protocol. RNU44 and snoRNA234 was used as internal controls for human and mouse miRNA respectively. For mRNA expression, first-strand cDNA was synthesized using the SuperScript III First-Strand Kit and then QPCR was performed using TaqMan Gene Expression Assays (Thermo Fisher). BCR-ABL expression in human and mouse samples were measured with primer and probe sequences for BCR-ABL (B3A2 or B2A2), as previously described^46. Results are presented as log 2-transformed ratio according to the 2−ΔCt method (ΔCt=Ct of target−Ct of reference).
# [6] = test system: normal hematopoiesis; test: Transplantation of BM cells from treated WT B6 mice into recipient mice; assay type: in vivo, mouse; conditions: recipients of BM cells from donor mice treated with scrRNA or inhibitor, 16 weeks after transplantation
# [7] = test system: CML LSCs; test: In vivo treatment of CML mice (SCLtTA/BCR-ABL BM cells transplanted into congenic B6 mice); design: species or system mouse
# Procedure: Next, we transplanted BM cells from SCLtTA/BCR-ABL mice (CD45.2) into congenic B6 mice (CD45.1). Following confirmation of CML development at 4 weeks after transplantation, mice were treated as above with scrRNA, inhibitor, scrRNA+NIL, or inhibitor+NIL for 3 weeks.
# [8] = test system: WT B6 mice; test: Hematologic toxicity in normal WT B6 mice
# Procedure: We treated WT B6 mice with CpG-scrRNA (scrRNA) or CpG-miR-126 inhibitor (inhibitor, 5 mg/kg/day i.v.) for 3 weeks, after which we collected their BM cells and transplanted them into recipient mice (3×10^5 BM cells/mouse).
# To determine the in vivo effect of the CpG-miR-126 inhibitor on normal hematopoiesis, normal mice were treated with scrRNA or inhibitor for 3 weeks, followed by assessment of WBC, RBC, PLT counts in PB and BM subpopulations in BM.
# [9] = WT B6 mice, 5 mg/kg/day i.v. for 3 weeks, compared with scrRNA-treated control mice
substance,measurement,setting,value
"5′ G*G*T GCA TCG ATG CAGG*G*G* G*G xxxxx mCmGmC mAmUmU mAmUmU mAmCmU mCmAmC mGmGmU mAmCmG mA-3′ (GGTGCATCGATGCAGGGGGGCGCAUUAUUACUCACGGUACGA; CpG ODN, C3 linkers, phosphorothioate, 2'OMe; (1)..(2) phosphorothioation; (2)..(3) phosphorothioation; (16)..(17) phosphorothioation; (17)..(18) phosphorothioation; (18)..(19) phosphorothioation; (19)..(20) phosphorothioation; (20)..(21) Five C3 carbon chain linkers, ((CH2)3)5; modified_base (21)..(21) cm; modified_base (22)..(22) gm; modified_base (23)..(23) cm; modified_base (24)..(24) 2′-O-Methyladenosine; modified_base (25)..(26) um; mod) [CpG-miR-126 inhibitor]",cell cycling,[1],increased cell cycling
same,cell cycling,[2],increased cell cycling
same,cell cycling,[3],increased cell cycling
same,cell cycling,[4],increased cell cycling
same,miR-126 down-regulation in sorted LT-HSCs and ECs,[5],significant miR-126 down-regulation
same,donor LT-HSC numbers in BM,[6],no significant differences
same,"donor cell engraftment in PB, BM or spleen",[6],no significant differences
same,"miR-126 levels in total ECs, Sca-1+ECs and Sca-1-ECs from BM","[7]; CML mice treated 3 weeks, compared with scrRNA-treated mice",significantly lower miR-126 levels
same,mice that survived,"[7]; CML mice, 3 weeks of treatment, followed 60 days after treatment discontinuation",50%
same,numbers of ECs in the BM,[8]; [9],no significant differences
same,numbers of LT-HSCs in the BM,[8]; [9],no significant differences
same,numbers of WBCs in PB,[8]; [9],no significant differences
same,numbers of mononuclear cells in the BM,[8]; [9],no significant differences
same,numbers of platelets (PLT) in PB,[8]; [9],no significant differences
same,numbers of red blood cells (RBC) in PB,[8]; [9],increased
same,pre-clinical toxicity for normal hematopoiesis,"[8]; overall conclusion, WT B6 mice treated for 3 weeks",lacks pre-clinical toxicity for normal hematopoiesis
